Experimental data reported in publication PMC10999543, “Identification of kinase modulators as host-directed therapeutics against intracellular methicillin-resistant Staphylococcus aureus” (Frontiers in Cellular and Infection Microbiology, 2024).
Where two headings read alike, the source gives them in different places.

Tests used:
intracellular MRSA = assay type: cell-based, Staphylococcus aureus; conditions: for %GFP+ rep 1 / z-scoreMRSA+ rep 1: replicate 1; for %GFP+ rep 2 / z-scoreMRSA+ rep 2: replicate 2; for %GFP+ rep 3 / z-scoreMRSA+ rep 3: replicate 3; for z-scoreMRSA+ mean: mean of 3 replicates
Method in brief: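 HeLa cells were infected with GFP-expressing MRSA (mean MOI 6.8) for 1 h, treated with 30 µg/ml gentamicin for 15 min, then incubated overnight at 37°C with kinase inhibitors and 5 µg/ml gentamicin. Flow cytometry gave % GFP-positive cells, with cell count as viability. Hits were z-score ≤ -2 (infection) and ≥ -3 (count) versus DMSO.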

HeLa cells = test: Compound screen by flow cytometry: HeLa cell count as surrogate readout of cell viability (z-scoreHeLa); assay type: cell-based, human
Method in brief: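 The viability surrogate was the count of fixed HeLa cells by flow cytometry, converted to z-scores against DMSO controls with values deviating two-fold excluded. Before counting, cells had been infected with MRSA for 1 h and cleared of extracellular bacteria with gentamicin. They were then exposed overnight to kinase inhibitors in triplicate.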

[1] = PKIS compound screen raw data, MRSA-infected HeLa cells
[2] = PKIS compound screen, MRSA-infected HeLa cells
[3] = PKIS compound screen, Yes/No call
[4] = PKIS compound screen, Yes/No call (effect without cell death)
[5] = PKIS compound screen, Yes/No call on z-scoreMRSA+
[6] = PKIS compounds raw data, MRSA-infected HeLa cells
[7] = PKIS compound screen raw data, HeLa cell count, replicate 1
[8] = PKIS compound screen raw data, HeLa cell count, replicate 2
[9] = PKIS compound screen raw data, HeLa cell count, replicate 3
[10] = PKIS compound screen, HeLa cell count, mean of 3 replicates
[11] = PKIS compound screen, HeLa cell count, replicate 1
[12] = PKIS compound screen, HeLa cell count, replicate 2
[13] = PKIS compound screen, HeLa cell count, replicate 3
[14] = PKIS compound screen, Yes/No call on z-scoreHeLa
[15] = PKIS compound screen, mean of 3 replicates
[16] = PKIS compound screen, replicate 1
[17] = PKIS compound screen, replicate 2
[18] = PKIS compound screen, replicate 3
[19] = PKIS compounds raw data, replicate 1, HeLa cell count
[20] = PKIS compounds raw data, replicate 2, HeLa cell count
[21] = PKIS compounds raw data, replicate 3, HeLa cell count
[22] = Yes/No: effect without cell death
[23] = compound screen, MRSA-infected HeLa cells
[24] = compound screen, HeLa cell count, mean of 3 replicates
[25] = compound screen, HeLa cell count, replicate 1
[26] = compound screen, HeLa cell count, replicate 2
[27] = compound screen, HeLa cell count, replicate 3

| Compound | %GFP+ rep 1 (intracellular MRSA; [1]) | %GFP+ rep 2 (intracellular MRSA; [1]) | %GFP+ rep 3 (intracellular MRSA; [1]) | z-scoreMRSA+ mean (intracellular MRSA; [2]) | z-scoreMRSA+ rep 1 (intracellular MRSA; [2]) | z-scoreMRSA+ rep 2 (intracellular MRSA; [2]) | z-scoreMRSA+ rep 3 (intracellular MRSA; [2]) | hit (intracellular MRSA; [4]) | effect (intracellular MRSA; [5]) | %GFP+ rep 1 (intracellular MRSA; [6]) | %GFP+ rep 2 (intracellular MRSA; [6]) | %GFP+ rep 3 (intracellular MRSA; [6]) | cell count rep 1 (HeLa cells; [7]) | cell count rep 2 (HeLa cells; [8]) | cell count rep 3 (HeLa cells; [9]) | z-scoreHeLa mean (HeLa cells; [10]) | z-scoreHeLa rep 1 (HeLa cells; [11]) | z-scoreHeLa rep 2 (HeLa cells; [12]) | z-scoreHeLa rep 3 (HeLa cells; [13]) | cell death (HeLa cells; [14]) | further results |
| --- | --- | --- | --- | --- | --- | --- | --- | --- | --- | --- | --- | --- | --- | --- | --- | --- | --- | --- | --- | --- | --- |
| Nc1ncc(-c2cccnc2)c2scc(-c3ccc4c(c3)CCN4C(=O)Cc3ccccc3)c12 [GSK683281A] | 18.3% | 19.8% | 19.8% | 0.18 | 0.14 | 0.38 | 0.00377 | No | No | 28.1% | 29.7% | 28.6% | 22126 | 22399 | 35639 | -0.93 | 0.30 | -2.31 | -0.78 | No | effect (intracellular MRSA; [3]): No; z-scoreMRSA+ mean (intracellular MRSA; PKIS compound screen): 0.38; z-scoreMRSA+ rep 1 (intracellular MRSA; PKIS compound screen): 0.20; z-scoreMRSA+ rep 2 (intracellular MRSA; PKIS compound screen): 0.70; z-scoreMRSA+ rep 3 (intracellular MRSA; PKIS compound screen): 0.25; cell death (HeLa cells; [3]): No; z-scoreHeLa mean (HeLa cells; [15]): 0.13; z-scoreHeLa rep 1 (HeLa cells; [16]): 0.36; z-scoreHeLa rep 2 (HeLa cells; [17]): 0.0122; z-scoreHeLa rep 3 (HeLa cells; [18]): 0.0253; cell count rep 1 (HeLa cells; [19]): 6640; cell count rep 2 (HeLa cells; [20]): 6026; cell count rep 3 (HeLa cells; [21]): 5637 |
| COC(=O)c1ccc2c(c1)C(=Cc1cc(Br)c(O)c(Br)c1)C(=O)N2 [GW405841X] |  |  |  |  |  |  |  | No |  | 13.2% | 13.6% | 14.0% |  |  |  |  |  |  |  |  | effect (intracellular MRSA; [3]): No; z-scoreMRSA+ mean (intracellular MRSA; PKIS compound screen): -0.17; z-scoreMRSA+ rep 1 (intracellular MRSA; PKIS compound screen): 0.00934; z-scoreMRSA+ rep 2 (intracellular MRSA; PKIS compound screen): 0.0349; z-scoreMRSA+ rep 3 (intracellular MRSA; PKIS compound screen): -0.56; cell death (HeLa cells; [3]): No; z-scoreHeLa mean (HeLa cells; [15]): 1.55; z-scoreHeLa rep 1 (HeLa cells; [16]): 0.63; z-scoreHeLa rep 2 (HeLa cells; [17]): 2.17; z-scoreHeLa rep 3 (HeLa cells; [18]): 1.84; cell count rep 1 (HeLa cells; [19]): 5478; cell count rep 2 (HeLa cells; [20]): 7140; cell count rep 3 (HeLa cells; [21]): 10804 |
| Cc1ccc(O)cc1Nc1ccnc2ccc(S(C)(=O)=O)cc12 [GW559768X] | 8.1% | 10.1% | 9.8% | -2.90 | -3.11 | -2.53 | -3.05 | Yes | Yes |  |  |  |  |  |  |  |  |  |  |  | cell death (HeLa cells): No; cell count rep 1 (HeLa cells; human): 30393; cell count rep 2 (HeLa cells; human): 35205; cell count rep 3 (HeLa cells; human): 44674; z-scoreHeLa mean (HeLa cells; human): 0.77; z-scoreHeLa rep 1 (HeLa cells; human): 1.56; z-scoreHeLa rep 2 (HeLa cells; human): 0.08; z-scoreHeLa rep 3 (HeLa cells; human): 0.66 |
| O=C(Nc1ccc(Oc2ccc3nc(NC(=O)c4ccco4)[nH]c3c2)cc1)Nc1cc(C(F)(F)F)ccc1F [GW683134A] | 9.6% | 11.2% | 12.6% |  |  |  |  |  |  |  |  |  | 24828 | 19604 | 15141 |  |  |  |  |  | effect (intracellular MRSA; Yes/No call from z-scoreMRSA+): Yes; hit (intracellular MRSA; [22]): Yes; z-scoreMRSA+ mean (intracellular MRSA; [23]): -2.35; z-scoreMRSA+ rep 1 (intracellular MRSA; [23]): -2.44; z-scoreMRSA+ rep 2 (intracellular MRSA; [23]): -2.24; z-scoreMRSA+ rep 3 (intracellular MRSA; [23]): -2.36; cell death (HeLa cells; Yes/No call from z-scoreHeLa): No; z-scoreHeLa mean (HeLa cells; [24]): -0.87; z-scoreHeLa rep 1 (HeLa cells; [25]): -0.91; z-scoreHeLa rep 2 (HeLa cells; [26]): -0.97; z-scoreHeLa rep 3 (HeLa cells; [27]): -0.74 |
| O=C1Nc2ccc(-c3cccnc3)cc2C1=Cc1cc(Br)c(O)c(Br)c1 [GW429374A] | 14.3% | 14.7% | 15.6% | -1.18 | -1.13 | -1.15 | -1.27 | No | No |  |  |  | 24917 | 38643 | 50434 | 1.01 | 0.73 | 0.72 | 1.58 | No |  |
| Cc1nnc(-c2ccc(C)c(-c3ccc(C(=O)Nc4ccc(NS(C)(=O)=O)cc4)cc3)c2)o1 [GW702865X] |  |  |  |  |  |  |  |  |  | 15.5% | 15.8% | 15.0% |  |  |  |  |  |  |  |  | effect (intracellular MRSA; Yes/No call from z-scoreMRSA+): No; hit (intracellular MRSA; [22]): No; z-scoreMRSA+ mean (intracellular MRSA; [23]): 0.42; z-scoreMRSA+ rep 1 (intracellular MRSA; [23]): 0.75; z-scoreMRSA+ rep 2 (intracellular MRSA; [23]): 0.77; z-scoreMRSA+ rep 3 (intracellular MRSA; [23]): -0.26; cell count rep 1 (HeLa cells; [19]): 4074; cell count rep 2 (HeLa cells; [20]): 4158; cell count rep 3 (HeLa cells; [21]): 6358; cell death (HeLa cells; Yes/No call from z-scoreHeLa): No; z-scoreHeLa mean (HeLa cells; [24]): -0.34; z-scoreHeLa rep 1 (HeLa cells; [25]): -0.64; z-scoreHeLa rep 2 (HeLa cells; [26]): -0.08; z-scoreHeLa rep 3 (HeLa cells; [27]): -0.29 |
| CN(C)CCCNc1nccc(-c2c(-c3ccc(F)cc3)nn3cc(C(F)(F)F)ccc23)n1 [GW618013A] | 10.7% | 13.4% | 14.0% | -1.86 | -2.27 | -1.54 | -1.76 | No | No |  |  |  | 23652 | 24495 | 45248 | -0.21 | 0.54 | -1.92 | 0.75 | No |  |
